Data published in article PMC4689404, “2-Benzazolyl-4-Piperazin-1-Ylsulfonylbenzenecarbohydroxamic Acids as Novel Selective Histone Deacetylase-6 Inhibitors with Antiproliferative Activity” (PLoS ONE, 2015).
Like-named read-outs stand apart in the source and are kept apart here.

Columns and labels:
recombinant HDAC1 = molecular target: T1, recombinant HDAC1 (Homo sapiens, UniProt Q13547); assay: comparative HDAC inhibition assay (Millipore fluorometric kit); format: biochemical; details: recombinant HDAC1, fluorometric substrate; Table 4
T1 construct: purchased Epigenetek
Experimental: (§1) For the direct comparison of HDAC1 vs. HDAC6 inhibition, HDAC activity was analyzed using the HDAC Assay Kit from Millipore (17–356). Briefly, recombinant HDAC1 or recombinant HDAC6 (both purchased from Epigenetek, Purity of HDAC1 is more than 60% and purity HDAC6 is more than 85%). was incubated with the fluorometric HDAC substrate according to the manufacturer’s protocol in the presence of DMSO vehicle or increase compound doses. In a secondary activator reaction, the fluorophore is only cleaved from the deacetylated substrate, allowing for quantification. Fluorescence was quantified on a FLUOstar-Optima or a FLUOstar Omega plate reader (BMG Biosciences).

recombinant HDAC6 = molecular target: T2, recombinant HDAC6 (Homo sapiens, UniProt Q9UBN7); assay: as above; format: biochemical
T2 construct: purchased Epigenetek
T2 sequence (Q9UBN7 1-1215): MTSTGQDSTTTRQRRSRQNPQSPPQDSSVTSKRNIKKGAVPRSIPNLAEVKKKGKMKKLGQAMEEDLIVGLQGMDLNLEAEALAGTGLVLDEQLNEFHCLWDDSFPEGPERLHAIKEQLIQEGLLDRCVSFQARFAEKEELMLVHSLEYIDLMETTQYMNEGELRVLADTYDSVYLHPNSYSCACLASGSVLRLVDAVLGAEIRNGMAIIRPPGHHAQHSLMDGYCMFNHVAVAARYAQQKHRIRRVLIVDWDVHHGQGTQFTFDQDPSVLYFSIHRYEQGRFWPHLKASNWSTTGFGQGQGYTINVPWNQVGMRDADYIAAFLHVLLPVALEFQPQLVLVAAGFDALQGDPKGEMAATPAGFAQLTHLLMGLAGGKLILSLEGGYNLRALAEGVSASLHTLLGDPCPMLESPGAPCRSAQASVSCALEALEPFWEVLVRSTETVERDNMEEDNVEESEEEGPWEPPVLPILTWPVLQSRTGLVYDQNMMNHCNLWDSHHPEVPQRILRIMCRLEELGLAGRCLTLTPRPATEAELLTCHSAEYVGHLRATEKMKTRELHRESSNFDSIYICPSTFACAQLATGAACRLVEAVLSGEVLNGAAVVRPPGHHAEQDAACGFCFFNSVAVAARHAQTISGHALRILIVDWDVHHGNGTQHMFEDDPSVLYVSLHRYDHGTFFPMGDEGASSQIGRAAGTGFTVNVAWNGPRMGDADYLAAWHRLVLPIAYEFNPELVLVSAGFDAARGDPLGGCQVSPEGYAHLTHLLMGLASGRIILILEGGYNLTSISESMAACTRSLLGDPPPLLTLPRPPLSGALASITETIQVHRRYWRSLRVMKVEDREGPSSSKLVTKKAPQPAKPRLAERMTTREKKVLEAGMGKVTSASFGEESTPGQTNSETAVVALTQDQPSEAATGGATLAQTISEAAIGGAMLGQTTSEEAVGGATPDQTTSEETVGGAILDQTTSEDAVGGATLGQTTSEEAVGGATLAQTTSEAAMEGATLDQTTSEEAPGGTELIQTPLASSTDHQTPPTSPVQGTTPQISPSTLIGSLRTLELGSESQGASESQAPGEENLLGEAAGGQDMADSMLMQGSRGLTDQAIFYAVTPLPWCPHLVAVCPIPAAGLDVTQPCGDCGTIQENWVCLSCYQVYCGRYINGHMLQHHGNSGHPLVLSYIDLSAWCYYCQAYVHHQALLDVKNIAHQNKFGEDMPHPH
Experimental: as §1

[1] = molecular target: T3, partially purified HDAC1 from mouse A20 cells (Mus musculus, UniProt O09106); assay: HDAC1 activity assay, partially purified enzyme, [3H]acetate-prelabeled histones; format: biochemical
T3 construct: from mouse A20 cells was used as enzyme source; endogenous in cells; host or cells: mouse A20 cells
Description: For inhibition assays, partially purified HDAC1 (70–80 fold enriched relative to crude samples) from mouse A20 cells was used as enzyme source. HDAC1 activity was purified by a combination of anion exchange chromatography (Mono Q), affinity chromatography (Poly-lysin agarose, Heparin Sepharose) and TSK size exclusion chromatography (Jesacher and Loidl, unpublished). HDAC1 protein was identified by immunoblotting using anti mouse HDAC1 antibodies (collaboration with Zymed Laboratories, Inc., San Francisco, California, USA). HDAC activity was determined as described by Sendra et al., [20] using [^3H]acetate-prelabeled chicken reticulocyte histones as substrate. 50 μL of mouse HDAC1 were incubated with different concentrations of compounds for 10 min on ice and 10 μL of total [^3H] acetate pre-labeled chicken reticulocyte histones (4 mg/mL) were added, resulting in a concentration of 41 μM. This mixture was incubated at 37°C for 1 h. The reaction was stopped by addition of 50 μL of 1 M HCl/0.4 M acetylacetate and 1 mL ethylacetate. After centrifugation at 10000 x g for 5 min an aliquot of 600 μL of the upper phase was counted for radioactivity in 3 mL liquid scintillation cocktail.

HCC4018 = assay: MTS viability assay; format: cell-based, human; details: for IC50: Homo sapiens, 96 h, Patient B cancer line, MTS, 4 days, read-out: Antiproliferative activity IC50, HCC4018; for Selectivity (HBEC-34KT vs HCC4018): Patient B
Experimental: (§2) Immortalized normal human bronchial epithelial cells (also provided by Dr. John D. Minna) were cultured in KSFM supplemented with pituitary extract and EGF. For viability assays, cells were plated on 96 well plates and grown overnight. Cells were then exposed to increasing doses of the indicated compounds for 4 days and their viability assayed using the Promega Cell Titer 96 AQueous One kit per the manufacturer’s protocol. All doses were tested in 4–8 replicates. IC50 values were calculated using the in-house software DIVISA.

HBEC-30KT = assay: MTS viability assay; format: cell-based, human; details: Homo sapiens, 96 h, Patient A normal line, 4 days, read-out: Antiproliferative activity IC50, HBEC-30KT
Experimental: as §2, with “Lung cancer cells (kindly provided by Dr. John D. Minna, [13, 21]) were maintained in RPMI 1640 media supplemented with 10% FBS. Immortalized” for “Immortalized”

HBEC-34KT = assay: MTS viability assay; format: cell-based, human; details: Homo sapiens, 96 h, Patient B normal line, 4 days, read-out: Antiproliferative activity IC50, HBEC-34KT
Experimental: as §2, with “Lung cancer cells (kindly provided by Dr. John D. Minna, [13, 21]) were maintained in RPMI 1640 media supplemented with 10% FBS. Immortalized” for “Immortalized”

[2] = Table 3, read-out: HDAC6 pIC50 (converted)
[3] = recombinant HDAC6, fluorometric substrate, Table 4, read-out: HDAC6 IC50
[4] = Table 3, partially purified HDAC1, read-out: HDAC1 IC50

T1 sequence (Q13547 whole entry): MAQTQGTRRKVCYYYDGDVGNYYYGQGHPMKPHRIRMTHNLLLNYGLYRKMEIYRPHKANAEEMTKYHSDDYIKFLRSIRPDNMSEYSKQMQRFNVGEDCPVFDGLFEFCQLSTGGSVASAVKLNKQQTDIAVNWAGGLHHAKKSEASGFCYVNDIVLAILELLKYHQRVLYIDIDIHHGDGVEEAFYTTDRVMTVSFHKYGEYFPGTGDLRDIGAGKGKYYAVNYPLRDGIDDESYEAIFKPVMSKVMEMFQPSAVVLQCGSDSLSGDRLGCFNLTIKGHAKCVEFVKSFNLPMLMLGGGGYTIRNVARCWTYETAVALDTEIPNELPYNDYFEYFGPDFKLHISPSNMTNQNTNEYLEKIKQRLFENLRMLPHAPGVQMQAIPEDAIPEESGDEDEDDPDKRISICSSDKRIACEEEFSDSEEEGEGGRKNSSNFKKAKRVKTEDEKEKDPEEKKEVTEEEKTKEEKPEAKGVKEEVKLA
T3 sequence (O09106 whole entry): as the sequence (Q13547 whole entry) above, with R8K, D399E, E424D counted along it

Structure (SMILES)	IC50 (recombinant HDAC1) [µM]	IC50 (recombinant HDAC6; [2]) [µM]	Selectivity Index HDAC1/HDAC6 (recombinant HDAC6; Table 4)	IC50 (recombinant HDAC6; [3]) [µM]	IC50 [1, 4] [µM]	IC50 ([1]; partially purified HDAC1 from mouse A20 cells, Fig 4 and text, read-out: HDAC1 Inhibit (IC50)) [µM]	IC50 (HCC4018) [µM]	Selectivity (HBEC-34KT vs HCC4018) (HCC4018)	IC50 (HBEC-30KT) [µM]	IC50 (HBEC-34KT) [µM]
Cn1c(N2CCN(S(=O)(=O)c3ccc(C(=O)NO)cc3)CC2)nc2ccccc21 [Compound 9b, 4-[4-(1-methylbenzimidazol-2-yl)piperazin-1-yl]sulfonylbenzenecarbohydroxamic acid]	3.7 ± 1.7	0.1	28.4	0.13 ± 0.07	12.4	~12	6.1	> 1.64	> 10	> 10
O=C(NO)c1ccc(S(=O)(=O)N2CCN(c3nc4ccccc4o3)CC2)cc1 [Compound 9c, 4-(4-Benzoxazol-2-yl-piperazin-1-sulfonyl)-N -hydroxy-benzamid]	0.92 ± 0.16	0.2	4.3	0.22 ± 0.04	5.7		5.05	> 1.98	> 10	> 10
O=C(NO)c1ccc(S(=O)(=O)N2CCN(c3nc4ccccc4s3)CC2)cc1 [Compound 9d, 4-(4-Benzothiazol-2-yl-piperazin-1-sulfonyl)-N -hydroxy-benzamid]	0.9 ± 0.45	0.1		0.13 ± 0.02	4.8		4	2.06	5.37	8.22
